In series [1] the target is human GnRHr (Homo sapiens (Human), UniProt P30968). As to the kind of experiment: Human GnRHr (GnRH receptor) activity assay, Fluo-4 calcium signal in Human GnRHr/CHO stably transfected cell lines. Format: cell-based. As to conditions: Human GnRHr/CHO cells, GnRH polypeptide stimulant. As to the method:
Test Example 1. Human GnRHr (GnRH Receptor) Activity Assay of the Present Compounds.
In vitro GnRHr protein activity was tested by the following methods.
This assay was used to determine the inhibition effect of the present compound on the activity of human GnRHr protein expressed by Human GnRHr/CHO stably transfected cell lines.
A mammalian expression vector containing the human GnRHr gene was transferred into CHO cells by adding Lipofectamine® LTX reagent containing Plus™. Antibiotics were added the next day for screening to pick out the monoclonal cell lines.
(§1) The Human GnRHr/CHO stably transfected cell lines were inoculated in 96-well plates with an inoculation density of 25,000 cells/well. The culture medium was removed the next day, and loading buffer containing Fluo-4 dye was added to the plate (100 μL/well) and incubated for 30 minutes at 37° C. The plate was moved to room temperature and equilibrated for 10 minutes. Each compound was diluted with DMSO to seven concentration gradients of 100 μM, 10 μM, 1 μM, 0.1 μM, 0.01 μM, 0.001 μM, 0.0001 μM. Then, 1 μl of each gradient was added to each well and incubated for 10 minutes at room temperature. After automated addition of 50 μL of GnRH polypeptide stimulant solution, the value was immediately detected at 494/516 nM by a microplate reader (flexstation 3). IC50 values of the compounds were calculated by software from different fluorescence signals at various corresponding concentrations.
The inhibitory activity of the present compounds on human GnRHr was determined by the above assay, and IC50 values are shown in Table 1.

Series [2] addresses rabbit GnRHr (Oryctolagus cuniculus, UniProt Q5U7L3). As to the kind of experiment: Rabbit GnRHr inhibitory activity assay, rabbit GnRHr/CHO stably transfected cell lines. The conditions noted are these: rabbit GnRHr/CHO cells, GnRH polypeptide stimulant, Fluo-4. In kind it is cell-based. As to the method: Test Example 3. Rabbit GnRHr Inhibitory Activity Assay of the Present Compounds
This assay was used to determine the inhibition effect of the present compounds on the activity of rabbit GnRHr protein expressed by rabbit GnRHr/CHO stably transfected cell lines.
A mammalian expression vector containing the rabbit GnRHr gene was transferred into CHO cells by adding Lipofectamine® LTX reagent containing Plus™. Antibiotics were added the next day for screening to pick out the monoclonal cell lines.
as §1, with “rabbit” for “Human”, “494/516n M” for “494/516 nM”
The inhibitory activity of the present compounds on rabbit GnRHr was determined by the above assay, and IC50 values are shown in Table 1.

Series [3] in a line: Rat pharmacokinetics assay. In kind it is in vivo, Sprague-Dawley (SD) rats. The conditions noted are these: both sexes, Sprague-Dawley, plasma, oral 10 mg/kg. As for the experimental part:
Test Example 4. Rat pharmacokinetics assay of the compounds of Example 2, Example 3, Example 5, Example 9, Example 10, Example 11, and Example 13 of the present invention.
Sprague-Dawley (SD) rats were used as test animals. The plasma concentrations at various times were determined by LC/MS/MS after intragastric administration of compounds of Example 2, Example 3, Example 5, Example 9, Example 10, Example 11, and Example 13, and intravenous administration of the compound of Example 11 to the rats. The pharmacokinetic behavior of the present compounds in rats was studied, and the pharmacokinetic features were evaluated.
Thirty-two (32) healthy adult SD rats (half female and half male) were evenly designated into 8 groups (4 for each group). The animals were purchased from Shanghai Super B&K Laboratory Animal Corp. Ltd (laboratory animal production Certificate No. SCXK (HU)2008-0016).
An appropriate amount of sample was weighed, and added with 0.5% CMC-Na to form a 1 mg/ml suspension upon ultrasonic treatment.
Appropriate amounts of drugs were weighed, and dissolved with 0.5 ml DMSO and 0.5 ml of Tween 80. Saline solution was added to the final volume.
Thirty-two (32) SD rats (half female and half male) were evenly designated into 8 groups (4 for each group), and administered by oral gavage or intravenous injection (i.v.) (oral gavage at a dosage of 10 mg/kg or 30 mg/kg, and i.v. at a dosage of 5.0 mg/kg), respectively, at a volume of 10 ml/kg after fasting overnight.
0.1 ml of blood was sampled before, and 0.5, 1, 2, 4, 6, 8, 11, and 24 hours after administration, collected in a heparinized test tube, and centrifuged at 3500 rpm for 10 minutes to separate the plasma, which was stored at −20° C. The animals were allowed access to feed 2 hours after administration.
The content of the test compound in the plasma of rats after administration of the compound by oral gavage was determined by LC/MS/MS.

For series [4] the following is noted: cited from earlier work.

Chain of human GnRHr (P30968 whole entry): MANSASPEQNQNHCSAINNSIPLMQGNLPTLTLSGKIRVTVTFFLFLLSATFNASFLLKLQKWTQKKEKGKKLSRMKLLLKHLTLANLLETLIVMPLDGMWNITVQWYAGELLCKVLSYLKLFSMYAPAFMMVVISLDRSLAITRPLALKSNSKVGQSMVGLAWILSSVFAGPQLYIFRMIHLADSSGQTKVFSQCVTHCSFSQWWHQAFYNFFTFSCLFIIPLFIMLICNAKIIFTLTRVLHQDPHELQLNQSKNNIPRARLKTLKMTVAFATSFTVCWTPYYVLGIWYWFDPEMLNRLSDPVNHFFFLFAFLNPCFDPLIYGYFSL
Chain of rabbit GnRHr (Q5U7L3 1-328): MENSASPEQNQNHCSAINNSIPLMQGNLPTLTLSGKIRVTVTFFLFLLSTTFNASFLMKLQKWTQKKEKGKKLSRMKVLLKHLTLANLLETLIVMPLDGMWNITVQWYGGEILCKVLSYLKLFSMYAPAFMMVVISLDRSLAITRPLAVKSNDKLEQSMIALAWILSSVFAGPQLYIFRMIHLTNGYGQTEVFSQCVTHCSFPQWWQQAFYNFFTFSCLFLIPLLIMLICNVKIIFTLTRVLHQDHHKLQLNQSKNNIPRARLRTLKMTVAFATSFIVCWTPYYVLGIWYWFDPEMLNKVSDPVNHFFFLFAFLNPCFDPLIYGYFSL

As usually defined, the IC50 is the concentration at which inhibition is half-maximal. With `CNC(=O)Nc1ccc(-n2nc3c(c2CN(C)C)c(=O)n(-c2cccc(OC)c2F)c(=O)n3Cc2c(F)cccc2C(F)(F)F)cc1` [Example 8, 1-(4-(3-((dimethylamino)methyl)-5-(2-fluoro-3-methoxyphenyl)-7-(2-fluoro-6-(trifluoromethyl)benzyl)-4,6-dioxo-4,5,6,7-tetrahydro-2H-pyrazolo[3,4-d]pyrimidin-2-yl)phenyl)-3-methylurea], the IC50 in series [1] is 600 pM; in series [2] it was 270 pM.

What is called AUC is concentration integrated over time. As usually defined, the MRT is the average time that molecules of a dose stay in the body. `CNC(=O)Nc1ccc(-n2nc3c(c2CN(C)C)c(=O)n(-c2ccc(OC)nn2)c(=O)n3Cc2c(F)cccc2F)cc1` [Example 9, 1-(4-(7-(2,6-difluorobenzyl)-3-((dimethylamino)methyl)-5-(6-methoxypyridazin-3-yl)-4,6-dioxo-4,5,6,7-tetrahydro-2H-pyrazolo[3,4-d]pyrimidin-2-yl)phenyl)-3-methylurea]: the IC50 in series [1] was 420 pM; in series [2], 240 pM. The Vd/F in series [3] (read-out: Apparent volume of distribution Vz/F) came to 72 ± 25 L/kg. Further, the AUC in series [3] (read-out: Area under curve AUC) stood at 628 ± 369 ng·h/mL. In addition, the CL/F in series [3] (read-out: Clearance rate CL/F) was determined as 332 ± 159 mL/min/kg. Further, the half-life in series [3] (read-out: Half-life T1/2 (converted)) was 2.91 ± 1.64 h. Moreover, in series [3] (read-out: Plasma concentration Cmax), the Cmax was found to be 146 ± 59 ng/mL. Moreover, the MRT in series [3] (read-out: Residence time MRT) worked out at 4.67 ± 2.22 h.

For the molecule `COc1cccc(-c2c(C)n(Cc3c(F)cccc3C(F)(F)F)c(=O)n(C[C@H](NCCCC(=O)O)c3ccccc3)c2=O)c1F` [elagolix, Elagolix], the safety and tolerability entry in series [4] (endometriosis phase II trial) is on record as “well verified”. Besides, the serum estrogen level entry in series [4] (women with endometriosis, elagolix 150 or 250 mg qd, vs leuprorelin depot and placebo) is “lower than that of the leuprorelin treatment group and placebo group”.

Source of the values: US10344034B2, “Pyrazolopyrimidone or Pyrrolotriazone derivatives, method of preparing same, and pharmaceutical applications thereof” (Shanghai Hengrui Pharmaceutical Co., Ltd., priority 2013, dated 2019).
